# Measured values from ChEMBL document CHEMBL4004838, “Design and synthesis of novel phenyl -1, 4-beta-carboline-hybrid molecules as potential anticancer agents” (Eur J Med Chem, 2017).
# Columns and labels:
# Assay type in all cases: functional
# MOLT-4 [1] = assay: Growth inhibition of human MOLT4 cells assessed as cell growth at 1 uM incubated for 48 hrs by sulforhodamine B assay relative to control; details: MOLT-4, 48 h, read-out: Activity
# MOLT-4 [2] = assay: Growth inhibition of human MOLT4 cells assessed as cell growth at 100 uM incubated for 48 hrs by sulforhodamine B assay relative to control; details: MOLT-4, 48 h, read-out: Activity
# SK-MEL-5 = assay: Growth inhibition of human SK-MEL-5 cells assessed as cell growth at 1 uM incubated for 48 hrs by sulforhodamine B assay relative to control; details: SK-MEL-5, 48 h, read-out: Activity
# HCT-116 = assay: Growth inhibition of human HCT116 cells assessed as cell growth at 0.1 uM incubated for 48 hrs by sulforhodamine B assay relative to control; details: HCT-116, 48 h, read-out: Activity
# MDA-MB-468 = assay: Growth inhibition of human MDA-MB-468 cells assessed as cell growth at 1 uM incubated for 48 hrs by sulforhodamine B assay relative to control; details: MDA-MB-468, 48 h, read-out: Activity
# NCI-H322M [3] = assay: Growth inhibition of human NCI-H322M cells assessed as cell growth at 0.01 uM incubated for 48 hrs by sulforhodamine B assay relative to control; details: read-out: Activity
# COLO 205 = assay: Growth inhibition of human COLO205 cells assessed as cell growth at 100 uM incubated for 48 hrs by sulforhodamine B assay relative to control; details: COLO 205, 48 h, read-out: Activity
# U-251 = assay: Growth inhibition of human U251 cells incubated for 48 hrs by sulforhodamine B assay; details: U-251, 48 h
# NCI/ADR-RES = assay: Growth inhibition of human NCI-ADR-RES cells assessed as cell growth at 1 uM incubated for 48 hrs by sulforhodamine B assay relative to control; details: read-out: Activity
# SK-MEL-2 [4] = assay: Growth inhibition of human SK-MEL-2 cells assessed as cell growth at 0.01 uM incubated for 48 hrs by sulforhodamine B assay relative to control; details: SK-MEL-2, 48 h, read-out: Activity
# NCI-H23 [5] = assay: Growth inhibition of human NCI-H23 cells assessed as cell growth at 0.01 uM incubated for 48 hrs by sulforhodamine B assay relative to control; details: NCI-H23, 48 h, read-out: Activity
# NCI-H23 [6] = assay: Growth inhibition of human NCI-H23 cells assessed as cell growth at 100 uM incubated for 48 hrs by sulforhodamine B assay relative to control; details: NCI-H23, 48 h, read-out: Activity
# NCI-H322M [7] = assay: Growth inhibition of human NCI-H322M cells assessed as cell growth at 0.1 uM incubated for 48 hrs by sulforhodamine B assay relative to control; details: read-out: Activity
# SK-MEL-2 [8] = assay: Growth inhibition of human SK-MEL-2 cells assessed as cell growth at 100 uM incubated for 48 hrs by sulforhodamine B assay relative to control; details: SK-MEL-2, 48 h, read-out: Activity
# SK-MEL-2 [9] = assay: Growth inhibition of human SK-MEL-2 cells incubated for 48 hrs by sulforhodamine B assay; details: SK-MEL-2, 48 h
# KM12 = assay: Growth inhibition of human KM12 cells incubated for 48 hrs by sulforhodamine B assay; details: KM12, 48 h
# IGROV-1 = assay: Growth inhibition of human IGROV1 cells incubated for 48 hrs by sulforhodamine B assay; details: IGROV-1, 48 h
# NCI-H460 = assay: Growth inhibition of human NCI-H460 cells assessed as cell growth at 1 uM incubated for 48 hrs by sulforhodamine B assay relative to control; details: NCI-H460, 48 h, read-out: Activity
# K562 = assay: Growth inhibition of human K562 cells assessed as cell growth at 100 uM incubated for 48 hrs by sulforhodamine B assay relative to control; details: K562, 48 h, read-out: Activity
# SR = assay: Growth inhibition of human SR cells assessed as cell growth at 0.1 uM incubated for 48 hrs by sulforhodamine B assay relative to control; details: read-out: Activity
# SW-620 = assay: Growth inhibition of human SW620 cells incubated for 48 hrs by sulforhodamine B assay; details: SW-620, 48 h
# NCI-H226 = assay: Growth inhibition of human NCI-H226 cells assessed as cell growth at 0.01 uM incubated for 48 hrs by sulforhodamine B assay relative to control; details: NCI-H226, 48 h, read-out: Activity
# DU-145 = assay: Growth inhibition of human DU145 cells incubated for 48 hrs by sulforhodamine B assay; details: DU-145, 48 h; for TGI: read-out: pTGI (converted)
# HCT-15 = assay: Growth inhibition of human HCT15 cells incubated for 48 hrs by sulforhodamine B assay; details: HCT-15, 48 h
# 786-0 = assay: Growth inhibition of human 786-0 cells assessed as cell growth at 100 uM incubated for 48 hrs by sulforhodamine B assay relative to control; details: 786-0, 48 h, read-out: Activity
# A498 = assay: Growth inhibition of human A498 cells assessed as cell growth at 0.1 uM incubated for 48 hrs by sulforhodamine B assay relative to control; details: A498, 48 h, read-out: Activity
# PC-3 = assay: Growth inhibition of human PC3 cells assessed as cell growth at 0.1 uM incubated for 48 hrs by sulforhodamine B assay relative to control; details: PC-3, 48 h, read-out: Activity
# MCF7 = assay: Growth inhibition of human MCF7 cells assessed as cell growth at 0.1 uM incubated for 48 hrs by sulforhodamine B assay relative to control; details: MCF7, 48 h, read-out: Activity
# SF-268 = assay: Growth inhibition of human SF268 cells assessed as cell growth at 0.01 uM incubated for 48 hrs by sulforhodamine B assay relative to control; details: SF-268, 48 h, read-out: Activity
# SK-MEL-28 = assay: Growth inhibition of human SK-MEL-28 cells assessed as cell growth at 1 uM incubated for 48 hrs by sulforhodamine B assay relative to control; details: SK-MEL-28, 48 h, read-out: Activity
# [10] = read-out: LC50 (the source's name)
# [11] = read-out: pLC50 (the source's name) (converted)
smiles,measurement,setting,value
c1ccc2c3c([nH]c2c1)C(c1ccc(C2NCCc4c2[nH]c2ccccc42)cc1)NCC3 (racemic),growth at 1 µM,MOLT-4 [1],13%
same,growth at 100 µM,MOLT-4 [2],76%
same,growth at 1 µM,SK-MEL-5,94%
same,growth at 0.1 µM,HCT-116,89%
same,growth at 1 µM,MDA-MB-468,11%
same,growth at 0.01 µM,NCI-H322M [3],92%
same,growth at 100 µM,COLO 205,84%
same,GI50,U-251; read-out: pGI50 (converted),0.324 µM
same,TGI,U-251; read-out: pTGI (converted),1.1 µM
same,growth at 1 µM,NCI/ADR-RES,78%
same,growth at 0.01 µM,SK-MEL-2 [4],100%
same,growth at 0.01 µM,NCI-H23 [5],95%
same,growth at 100 µM,NCI-H23 [6],86%
same,growth at 0.1 µM,NCI-H322M [7],91%
same,growth at 100 µM,SK-MEL-2 [8],93%
same,GI50,SK-MEL-2 [9]; read-out: GI50,1.7 µM
same,CC50,SK-MEL-2 [9]; [10],7.47 µM
same,TGI,SK-MEL-2 [9]; read-out: TGI,3.57 µM
same,GI50,SK-MEL-2 [9]; read-out: pGI50 (converted),1.7 µM
same,CC50,SK-MEL-2 [9]; [11],7.41 µM
same,TGI,SK-MEL-2 [9]; read-out: pTGI (converted),3.55 µM
same,GI50,KM12; read-out: GI50,1.07 µM
same,TGI,KM12; read-out: TGI,2.36 µM
same,GI50,KM12; read-out: pGI50 (converted),1.07 µM
same,TGI,KM12; read-out: pTGI (converted),2.34 µM
same,GI50,IGROV-1; read-out: GI50,1.34 µM
same,CC50,IGROV-1; [10],5.99 µM
same,TGI,IGROV-1; read-out: TGI,2.85 µM
same,GI50,IGROV-1; read-out: pGI50 (converted),1.35 µM
same,CC50,IGROV-1; [11],6.03 µM
same,TGI,IGROV-1; read-out: pTGI (converted),2.82 µM
same,growth at 1 µM,NCI-H460,56%
same,growth at 100 µM,K562,78%
same,growth at 0.1 µM,SR,106%
same,GI50,SW-620; read-out: GI50,1.85 µM
same,CC50,SW-620; [10],6.39 µM
same,TGI,SW-620; read-out: TGI,3.44 µM
same,GI50,SW-620; read-out: pGI50 (converted),0.186 µM
same,CC50,SW-620; [11],0.646 µM
same,growth at 0.01 µM,NCI-H226,97%
same,CC50,DU-145; [10],5.16 µM
same,GI50,DU-145; read-out: pGI50 (converted),0.741 µM
same,CC50,DU-145; [11],5.13 µM
same,TGI,DU-145,2.14 µM
same,GI50,HCT-15; read-out: pGI50 (converted),0.427 µM
same,TGI,HCT-15; read-out: pTGI (converted),1.78 µM
same,growth at 100 µM,786-0,-85%
same,growth at 0.1 µM,A498,67%
same,growth at 0.1 µM,PC-3,94%
same,growth at 0.1 µM,MCF7,90%
same,growth at 0.01 µM,SF-268,92%
same,growth at 1 µM,SK-MEL-28,91%
c1ccc2[nH]c(-c3ccc(-c4nccc5c4[nH]c4ccccc45)cc3)nc2c1,growth at 1 µM,MOLT-4 [1],93%
same,growth at 100 µM,MOLT-4 [2],54%
same,growth at 1 µM,SK-MEL-5,94%
same,growth at 0.1 µM,HCT-116,96%
same,growth at 1 µM,MDA-MB-468,98%
same,growth at 0.01 µM,NCI-H322M [3],92%
same,growth at 100 µM,COLO 205,65%
same,GI50,U-251; read-out: GI50,2.74 µM
same,LC50,U-251; read-out: LC50,4.05 µM
same,TGI,U-251; read-out: TGI,7.83 µM
same,GI50,U-251; read-out: pGI50 (converted),2.75 µM
same,LC50,U-251; read-out: pLC50 (converted),40.7 µM
same,TGI,U-251; read-out: pTGI (converted),7.76 µM
same,growth at 1 µM,NCI/ADR-RES,98%
same,growth at 0.01 µM,SK-MEL-2 [4],95%
same,growth at 0.01 µM,NCI-H23 [5],95%
same,growth at 100 µM,NCI-H23 [6],54%
same,growth at 0.1 µM,NCI-H322M [7],101%
same,growth at 100 µM,SK-MEL-2 [8],64%
same,GI50,SK-MEL-2 [9]; read-out: GI50,1.99 µM
same,CC50,SK-MEL-2 [9]; [10],9.45 µM
same,TGI,SK-MEL-2 [9]; read-out: TGI,4.34 µM
same,GI50,SK-MEL-2 [9]; read-out: pGI50 (converted),2 µM
same,CC50,SK-MEL-2 [9]; [11],9.55 µM
same,TGI,SK-MEL-2 [9]; read-out: pTGI (converted),4.37 µM
same,LC50,KM12; read-out: LC50,5.29 µM
same,GI50,KM12; read-out: pGI50 (converted),3.63 µM
same,LC50,KM12; read-out: pLC50 (converted),52.5 µM
same,TGI,KM12; read-out: pTGI (converted),15.8 µM
same,GI50,IGROV-1; read-out: GI50,4.73 µM
same,CC50,IGROV-1; [10],> 1 µM
same,GI50,IGROV-1; read-out: pGI50 (converted),4.68 µM
same,CC50,IGROV-1; [11],> 100 µM
same,TGI,IGROV-1; read-out: pTGI (converted),22.4 µM
same,growth at 1 µM,NCI-H460,97%
same,growth at 100 µM,K562,59%
same,growth at 0.1 µM,SR,93%
same,GI50,SW-620; read-out: GI50,2.79 µM
same,CC50,SW-620; [10],> 1 µM
same,TGI,SW-620; read-out: TGI,8.48 µM
same,GI50,SW-620; read-out: pGI50 (converted),2.82 µM
same,CC50,SW-620; [11],> 100 µM
same,TGI,SW-620; read-out: pTGI (converted),8.51 µM
same,growth at 0.01 µM,NCI-H226,93%
same,GI50,DU-145; read-out: GI50,4.02 µM
same,CC50,DU-145; [10],5.74 µM
same,GI50,DU-145; read-out: pGI50 (converted),3.98 µM
same,CC50,DU-145; [11],57.5 µM
same,TGI,DU-145,16.2 µM
same,GI50,HCT-15; read-out: GI50,2.22 µM
same,LC50,HCT-15; read-out: LC50,3 µM
same,TGI,HCT-15; read-out: TGI,5.61 µM
same,GI50,HCT-15; read-out: pGI50 (converted),2.24 µM
same,LC50,HCT-15; read-out: pLC50 (converted),30.2 µM
same,TGI,HCT-15; read-out: pTGI (converted),5.62 µM
same,growth at 100 µM,786-0,70%
same,growth at 0.1 µM,A498,83%
same,growth at 0.1 µM,PC-3,100%
same,growth at 0.1 µM,MCF7,96%
same,growth at 0.01 µM,SF-268,97%
same,growth at 1 µM,SK-MEL-28,102%
